pEC50, pIC50: −log10 of the molar value. Where two headings read alike, the source gives them in different places. One block for each molecule: values may come before it.
Assays:
[1] = molecular target: EGFR Fab binding to the EGFR antigen; experiment: ELISA competitive inhibition of EGFR Fab binding to EGFR antigen; settings: for potency as peptide mask (in words): binding and inhibition data relative to peptide-8
EGFR Fab = experiment: ELISA binding of peptides to EGFR Fab; settings: for pEC50: read-out: EC50 for peptide binding to αEGFR Fab; for binding affinity for EGFR Fab (in words): among peptides of Table 14
[2] = read-out: IC50 for peptide inhibition of αEGFR Fab binding to EGFR antigen, Table 18
[3] = read-out: IC50 for peptide inhibition of αEGFR Fab binding to EGFR antigen, Table 17
[4] = read-out: IC50 for peptide inhibition of αEGFR Fab binding to EGFR antigen, Table 27, peptide-8 optimization
[5] = Table 25, peptide-8 optimization
[6] = Table 20, peptide-8 alanine scanning mutants, read-out: IC50

SMILES: CSCC[C@@H]1NC(=O)[C@H](Cc2c[nH]cn2)NC(=O)[C@H](CO)NC(=O)[C@@H](NC(=O)[C@@H](N)CCC(=O)O)CSSC[C@@H](C(=O)N[C@@H](CO)C(=O)O)NC(=O)[C@H](CC(C)C)NC(=O)[C@@H]2CCCN2C(=O)[C@H](Cc2c[nH]c3ccccc23)NC(=O)[C@H](CCCNC(=N)N)NC(=O)[C@H]([C@@H](C)O)NC(=O)CNC(=O)[C@H](CCC(=O)O)NC1=O [Peptide-16]
pIC50 [1, 2]: < 6.52
pEC50 (EGFR Fab; Table 16): 7.47

SMILES: CSCC[C@@H]1NC(=O)[C@H](Cc2c[nH]c3ccccc23)NC(=O)[C@H](Cc2ccc(O)cc2)NC(=O)[C@H](Cc2c[nH]cn2)NC(=O)[C@H](C(C)C)NC(=O)[C@@H](NC(=O)[C@@H](NC(=O)[C@@H](N)CO)[C@@H](C)O)CSSC[C@@H](C(=O)N[C@H](C(=O)O)C(C)C)NC(=O)[C@H](CO)NC(=O)[C@H](CCCNC(=N)N)NC(=O)[C@H](CC(C)C)NC(=O)[C@H](CCC(N)=O)NC1=O [Peptide-9]
pIC50 [1, 3]: < 6.52
pEC50 (EGFR Fab; Table 15): < 6.00

SMILES: CSCC[C@@H]1NC(=O)[C@H](CCCNC(=N)N)NC(=O)[C@H](C(C)C)NC(=O)[C@H](CCSC)NC(=O)[C@H](CCCNC(=N)N)NC(=O)[C@H](Cc2c[nH]cn2)NC(=O)[C@H](CC(C)C)NC(=O)CNC(=O)[C@H](CC(=O)O)NC(=O)CNC(=O)[C@@H](NC(=O)CN)CSSC[C@@H](C(=O)O)NC(=O)[C@H](Cc2c[nH]c3ccccc23)NC1=O [Peptide-12]
pIC50 [1, 3]: < 6.52
pEC50 (EGFR Fab; Table 15): < 6.00

SMILES: CSCC[C@@H]1NC(=O)[C@H](C(C)C)NC(=O)[C@H](Cc2c[nH]c3ccccc23)NC(=O)[C@H](Cc2c[nH]cn2)NC(=O)[C@H](C)NC(=O)[C@@H](NC(=O)CNC(=O)CN)CSSC[C@@H](C(=O)N[C@@H](CCC(N)=O)C(=O)O)NC(=O)[C@H](Cc2c[nH]c3ccccc23)NC(=O)[C@H](CO)NC(=O)[C@H](CC(C)C)NC(=O)[C@H](CCCNC(=N)N)NC1=O [Peptide-10]
pIC50 [1, 3]: < 6.52
pEC50 (EGFR Fab; Table 15): < 6.00

SMILES: CC[C@H](C)[C@@H]1NC(=O)[C@@H]2CCCN2C(=O)[C@H](CCCCN)NC(=O)[C@H](C)NC(=O)[C@@H]2CCCN2C(=O)[C@H](CC(=O)O)NC(=O)[C@H](CC(N)=O)NC(=O)[C@H](Cc2c[nH]cn2)NC(=O)[C@H](Cc2ccc(O)cc2)NC(=O)[C@H](C)NC(=O)[C@@H](NC(=O)[C@@H]2CCCN2)CSSC[C@@H](C(=O)N[C@@H](CO)C(=O)O)NC1=O [Peptide-45, PCAYHNDPAKPICS]
potency as peptide mask (in words) [1]: more potent peptide masks
pIC50 [1, 4]: 6.27
pEC50 (EGFR Fab; [5]): 7.99

SMILES: CSCC[C@@H]1NC(=O)[C@H](C(C)C)NC(=O)[C@H]([C@@H](C)O)NC(=O)[C@@H](NC(=O)[C@H](C)N)CSSC[C@@H](C(=O)N[C@H](C(=O)O)C(C)C)NC(=O)[C@H](CCCNC(=N)N)NC(=O)[C@H](C(C)C)NC(=O)[C@H](CCC(=O)O)NC(=O)[C@H](CCC(N)=O)NC(=O)[C@H](CCCNC(=N)N)NC(=O)[C@H](C)NC(=O)CNC1=O [Peptide-13]
pIC50 [1, 2]: < 6.52
pEC50 (EGFR Fab; Table 16): < 6.00

SMILES: CC[C@H](C)[C@@H]1NC(=O)[C@@H]2CCCN2C(=O)[C@H](CCCCN)NC(=O)[C@H](C)NC(=O)[C@@H]2CCCN2C(=O)[C@H](CC(=O)O)NC(=O)[C@H](CC(N)=O)NC(=O)[C@H](Cc2c[nH]cn2)NC(=O)[C@H](CO)NC(=O)[C@H](CC(C)C)NC(=O)[C@@H](NC(=O)[C@@H]2CCCN2)CSSC[C@@H](C(=O)N[C@@H](C)C(=O)O)NC1=O [Peptide-41]
pIC50 [1, 4]: 5.37
pEC50 (EGFR Fab; [5]): 6.53

SMILES: CC[C@H](C)[C@@H]1NC(=O)[C@@H]2CCCN2C(=O)[C@H](CCCCN)NC(=O)[C@H](C)NC(=O)[C@@H]2CCCN2C(=O)[C@H](CC(=O)O)NC(=O)[C@H](Cc2ccccc2)NC(=O)[C@H](Cc2c[nH]cn2)NC(=O)[C@H](Cc2ccccc2)NC(=O)[C@H](CC(C)C)NC(=O)[C@@H](NC(=O)[C@@H]2CCCN2)CSSC[C@@H](C(=O)N[C@@H](CO)C(=O)O)NC1=O [Peptide-46, PCLFHFDPAKPICS]
potency as peptide mask (in words) [1]: more potent peptide masks
pIC50 [1, 4]: 6.52
pEC50 (EGFR Fab; [5]): 8.31

SMILES: CC[C@H](C)[C@@H]1NC(=O)[C@H](CC(=O)O)NC(=O)[C@H](Cc2ccccc2)NC(=O)[C@H](Cc2c[nH]cn2)NC(=O)[C@H](CO)NC(=O)[C@H](CC(N)=O)NC(=O)[C@@H](NC(=O)[C@@H]2CCCN2)CSSC[C@@H](C(=O)N[C@@H](CC(C)C)C(=O)O)NC(=O)[C@H]([C@@H](C)CC)NC(=O)[C@@H]2CCCN2C(=O)[C@H](CCCCN)NC(=O)[C@H](C)NC1=O [Peptide-44]
pIC50 [1, 4]: 5.18
pEC50 (EGFR Fab; [5]): 6.47

SMILES: CSCC[C@@H]1NC(=O)[C@H](CC(C)C)NC(=O)[C@H](Cc2ccccc2)NC(=O)[C@H](Cc2c[nH]cn2)NC(=O)[C@H](CCC(N)=O)NC(=O)[C@@H](NC(=O)CNC(=O)[C@@H](N)CC(C)C)CSSC[C@@H](C(=O)NCC(=O)O)NC(=O)[C@H]([C@@H](C)O)NC(=O)[C@H](C)NC(=O)[C@H](CC(C)C)NC(=O)[C@H](CCCCN)NC1=O [Peptide-11]
pIC50 [1, 3]: < 6.52
pEC50 (EGFR Fab; Table 15): 7.38

SMILES: CC[C@H](C)[C@@H]1NC(=O)[C@H](CC(C)C)NC(=O)[C@H](C)NC(=O)[C@@H]2CCCN2C(=O)[C@@H](NC(=O)[C@@H]2CCCN2)CSSC[C@@H](C(=O)N[C@H](C(=O)O)C(C)C)NC(=O)[C@H]([C@@H](C)CC)NC(=O)[C@H](C(C)C)NC(=O)[C@H](CCC(=O)O)NC(=O)[C@H](C)NC(=O)[C@H](C(C)C)NC(=O)[C@H](CC(=O)O)NC1=O [Peptide-14]
pIC50 [1, 2]: < 6.52
pEC50 (EGFR Fab; Table 16): < 6.00

SMILES: CC[C@H](C)[C@@H]1NC(=O)[C@@H]2CCCN2C(=O)[C@H](CCCCN)NC(=O)[C@H](C)NC(=O)[C@H](CC(C)C)NC(=O)[C@H](CC(=O)O)NC(=O)[C@H](Cc2ccc(O)cc2)NC(=O)[C@H](Cc2c[nH]cn2)NC(=O)[C@H](CO)NC(=O)[C@H](CC(N)=O)NC(=O)[C@@H](NC(=O)[C@@H]2CCCN2)CSSC[C@@H](C(=O)N[C@H](C(=O)O)[C@@H](C)O)NC1=O [Peptide-43]
pIC50 [1, 4]: 5.37
pEC50 (EGFR Fab; [5]): 6.73

SMILES: CC(C)C[C@@H]1NC(=O)[C@H](CCC(N)=O)NC(=O)CNC(=O)[C@H](CCCNC(=N)N)NC(=O)[C@H](CCC(N)=O)NC(=O)[C@H](Cc2c[nH]c3ccccc23)NC(=O)[C@H](C(C)C)NC(=O)[C@H](CO)NC(=O)[C@H](CC(N)=O)NC(=O)[C@@H](NC(=O)[C@@H](N)Cc2ccc(O)cc2)CSSC[C@@H](C(=O)O)NC(=O)[C@H](Cc2c[nH]c3ccccc23)NC(=O)[C@H](Cc2ccc(O)cc2)NC1=O [Peptide-15]
pIC50 [1, 2]: < 6.52
binding affinity for EGFR Fab (in words) (EGFR Fab): strongest binding affinities (lowest EC50s)
pEC50 (EGFR Fab; Table 16): 8.15

Fold shift in IC50 relative to Peptide-8 (IC50 Ala mutant/IC50 Peptide-8) ([1]; Table 21): 2.7
pIC50 ([1]; Table 21, peptide-8 alanine scanning mutants, read-out: IC50): 5.42
SMILES: CC[C@H](C)[C@@H]1NC(=O)[C@H](Cc2c[nH]cn2)NC(=O)[C@H](CO)NC(=O)[C@H](CCCNC(=N)N)NC(=O)[C@@H](NC(=O)[C@@H]2CCCN2)CSSC[C@@H](C(=O)N[C@H](C(=O)O)C(C)C)NC(=O)[C@H]([C@@H](C)CC)NC(=O)[C@@H]2CCCN2C(=O)[C@H](CCCCN)NC(=O)[C@H](C)NC(=O)[C@H](C)NC(=O)[C@H](CC(=O)O)NC1=O [Peptide-23]

SMILES: CC(C)C[C@H](NC(=O)[C@@H]1CSSC[C@H](NC(=O)[C@@H](N)Cc2c[nH]c3ccccc23)C(=O)N[C@@H]([C@@H](C)O)C(=O)N[C@@H](C(C)C)C(=O)N[C@@H](Cc2c[nH]c3ccccc23)C(=O)NCC(=O)N[C@@H](CC(=O)O)C(=O)N[C@@H](CCCNC(=N)N)C(=O)N[C@@H](CCC(N)=O)C(=O)N[C@@H](CCC(=O)O)C(=O)N[C@@H](C(C)C)C(=O)N[C@@H](CCCNC(=N)N)C(=O)N1)C(=O)O [Peptide-7]
pIC50 [1, 3]: < 6.52
pEC50 (EGFR Fab; Table 15): < 6.00

SMILES: CC[C@H](C)[C@@H]1NC(=O)[C@@H]2CCCN2C(=O)[C@H](CCCCN)NC(=O)[C@H](C)NC(=O)[C@H]([C@@H](C)O)NC(=O)[C@H](CC(=O)O)NC(=O)[C@H](Cc2ccccc2)NC(=O)[C@H](Cc2c[nH]cn2)NC(=O)[C@H](CO)NC(=O)[C@H]([C@@H](C)O)NC(=O)[C@@H](NC(=O)[C@@H]2CCCN2)CSSC[C@@H](C(=O)N[C@@H](C)C(=O)O)NC1=O [Peptide-39]
pIC50 [1, 4]: 5.55
pEC50 (EGFR Fab; [5]): 6.69

Fold shift in IC50 relative to Peptide-8 (IC50 Ala mutant/IC50 Peptide-8) ([1]; Table 20): 4.1
pIC50 [1, 6]: 4.80
SMILES: CC[C@H](C)[C@@H]1NC(=O)[C@H](Cc2c[nH]cn2)NC(=O)[C@H](CO)NC(=O)[C@H](CCCNC(=N)N)NC(=O)[C@@H](NC(=O)[C@H](C)N)CSSC[C@@H](C(=O)N[C@H](C(=O)O)C(C)C)NC(=O)[C@H]([C@@H](C)CC)NC(=O)[C@@H]2CCCN2C(=O)[C@H](CCCCN)NC(=O)[C@H](C)NC(=O)[C@H](C(C)C)NC(=O)[C@H](CC(=O)O)NC1=O [Peptide-17]

pIC50 [1, 6]: < 4.00
SMILES: CC[C@H](C)[C@@H]1NC(=O)[C@H](Cc2c[nH]cn2)NC(=O)[C@H](CO)NC(=O)[C@H](CCCNC(=N)N)NC(=O)[C@@H](NC(=O)[C@@H]2CCCN2)CSSC[C@@H](C(=O)N[C@H](C(=O)O)C(C)C)NC(=O)[C@H]([C@@H](C)CC)NC(=O)[C@@H]2CCCN2C(=O)[C@H](CCCCN)NC(=O)[C@H](C)NC(=O)[C@H](C(C)C)NC(=O)[C@H](C)NC1=O [Peptide-22]

SMILES: CC[C@H](C)[C@@H]1NC(=O)[C@H](Cc2c[nH]cn2)NC(=O)[C@H](CO)NC(=O)[C@H](CCCNC(=N)N)NC(=O)[C@@H](NC(=O)[C@@H]2CCCN2)CSSC[C@@H](C(=O)N[C@H](C(=O)O)C(C)C)NC(=O)[C@H]([C@@H](C)CC)NC(=O)[C@@H]2CCCN2C(=O)[C@H](CCCCN)NC(=O)[C@H](C)NC(=O)[C@H](C(C)C)NC(=O)[C@H](CC(=O)O)NC1=O [Peptide-8]
inhibiting EGFR Fab binding to the EGFR antigen (in words) ([1]; among peptides of Table 14): most effective at inhibiting EGFR Fab binding to the EGFR antigen
binding affinity for EGFR Fab (in words) (EGFR Fab): strongest binding affinities (lowest EC50s)
pEC50 (EGFR Fab; Table 15): 8.10
pEC50 (EGFR Fab; Table 24, peptide-8 optimization): 6.16

Source: patent US12433953B2, “Compositions and methods related to tumor activated antibodies targeting EGFR and effector cell antigens” (Janux Therapeutics, Inc., priority 2021, dated 2025)
